# Experimental data from patent US8642612B2, “Nicotinic desensitizers and methods of selecting, testing, and using them” (Potomac Pharmaceuticals, Inc., priority 2006, dated 2014).
# Read-outs that look alike come from different tables or passages of the source.
# Tests used:
# rat α3β4 nAChRs [1] = target: T1, rat α3β4 nAChRs (Rattus norvegicus, UniProt P04757+P12392); experiment: [3H]epibatidine competition binding, rat α3β4 nAChRs expressed in HEK cells
# T1 construct: expressed in transfected cells; the efflux text says only stably transfected cells
# Method: (§1) Briefly, cultured cells at >80% confluence were removed from their flasks (80 cm^2) with a disposable cell scraper and placed in 10 ml of 50 mM Tris HCl buffer (pH 7.4, 4° C.). The cell suspension was centrifuged at 10,000×g for 5 min and the pellet was collected. For cells treated chronically with nicotinic agonists during culturing, the pellet was washed two more times by centrifugation in fresh buffer to remove residual drug. The cell pellet was then homogenized in 10 ml buffer with a polytron homogenizer (Model PT2100, 12 mm aggregate, 26,000 rpm, 20 seconds) and centrifuged at 36,000 g for 10 min at 4° C. The membrane pellet was resuspended in fresh buffer, and aliquots of the membrane preparation equivalent to 30 to 200 μg protein were used for binding assays. […] Bound and free ligands were separated by vacuum filtration through Whatman GF/C filters treated with 0.5% polyethylenimine. The filter-retained radioactivity was measured by liquid scintillation counting. Specific binding was defined as the difference between total binding and nonspecific binding. Data from saturation and competition binding assays were analyzed using Prism 4 (GraphPad Software, San Diego, Calif.).
# (§2) All ligand binding assays were carried out using rat or human nAChRs heterologously expressed in human cells or in native rat brain tissues.
# human α4β2 nAChRs [2] = target: T2, human α4β2 nAChRs (Homo sapiens, UniProt P17787+P43681); experiment: Inhibition of nicotine-stimulated 86Rb+ efflux, cells expressing human α4β2 nAChRs; assay type: cell-based
# T2 construct: expressed in transfected cells; the efflux text says only stably transfected cells
# Method: (§3) In brief, cells were plated into 24-well plates coated with poly-D-lysine. […] The cells were then incubated in growth medium (0.5 ml/well) containing ^86Rb^+ (2 μCi/ml) for 4 hour at 37° C. The loading mixture was then aspirated, and the cells were washed four times with 1 ml buffer (15 mM HEPES, 140 mM NaCl, 2 mM KCl, 1 mM MgSO4, 1.8 mM CaCl2, 11 mM Glucose, pH 7.4). One ml of buffer with or without compounds to be tested was then added to each well. After incubation for 2 min, the assay buffer was collected for measurements of ^86Rb^+ released from the cells. Cells were then lysed by adding 1 ml of 100 mM NaOH to each well, and the lysate was collected for determination of the amount of ^86Rb^+ that was in the cells at the end of the efflux assay. Radioactivity of assay samples and lysates was measured by liquid scintillation counting. Total loading (cpm) was calculated as the sum of the assay sample and the lysate of each well. The amount of ^86Rb^+ efflux was expressed as a percentage of […] loaded. […] IC50 values were determined by nonlinear least-squares regression analyses (GraphPad, San Diego, Calif.).
# rat α4β2 nAChRs = target: T3, rat α4β2 nAChRs (Rattus norvegicus, UniProt P09483+P12390); experiment: [3H]epibatidine competition binding, rat α4β2 nAChRs expressed in HEK cells
# T3 construct: expressed in transfected cells; host or cells: HEK cells (membrane homogenates)
# Method: as §1, with “drug.” for “drug. The cell pellet was then homogenized in 10 ml buffer with a polytron homogenizer (Model PT2100, 12 mm aggregate, 26,000 rpm, 20 seconds) and centrifuged at 36,000 g for 10 min at 4° C. The membrane pellet was resuspended in fresh buffer, and aliquots of the membrane preparation equivalent to 30 to 200 μg protein were used for binding assays.”
# as §2
# rat α3β4 nAChRs [3] = target: T1, rat α3β4 nAChRs; experiment: Inhibition of nicotine-stimulated 86Rb+ efflux, cells expressing rat α3β4 nAChRs; assay type: cell-based
# Method: as §3
# human α4β2 nAChRs [4] = target: T2, human α4β2 nAChRs; experiment: biochemical; assay type: binding
# Method: as §1, §2
# human α4β2 nAChRs [5] = target: T2, human α4β2 nAChRs; assay type: cell-based; details: for Agonist Activity α4β2: stimulation of 86Rb+ efflux
# Method: as §3
# (§4) The agonist activities of ligands on nAChRs were assessed by measuring agonist-stimulated ^86Rb^+ efflux from stably transfected cells.
# rat α3β4 nAChRs [6] = target: T1, rat α3β4 nAChRs; assay type: cell-based; details: for Agonist Activity α3β4: stimulation of 86Rb+ efflux
# Method: as §3, §4
# [7] = added simultaneously with nicotine
smiles,measurement,setting,value
"OCCCCC#Cc1cncc(OC[C@@H]2CCN2)c1 [Sazetidine-A, 6-(5-(((S)-azetidin-2-yl)methoxy)pyridin-3-yl)hex-5-yn-1-ol]",Ki,rat α3β4 nAChRs [1],10000 nM
same,concentration that nearly completely inhibited nicotine activation of α4β2 receptors,human α4β2 nAChRs [2]; 10 min preincubation,~200 nM
same,IC50,"human α4β2 nAChRs [2]; Acute Antagonist Potency (IC50(A), nM) α4β2, applied simultaneously with nicotine",≥ 10000 nM
same,IC50,"human α4β2 nAChRs [2]; Desensitization Potency (IC50(D,10 min), nM) α4β2, 10 min pretreatment before nicotine",26 nM
same,IC50,"human α4β2 nAChRs [2]; IC50 α4β2 nAChRs, 0 min Pretreatment, added simultaneously with 100 μM nicotine, mean ± SEM of 3 to 7 experiments",> 10000 nM
same,IC50,"human α4β2 nAChRs [2]; IC50 α4β2 nAChRs, 10 min Pretreatment, 10 min preincubation, then 100 μM nicotine, mean ± SEM of 3 to 7 experiments",~30 nM
same,"acute antagonist activity, blockade of nicotine-stimulated 86Rb+ efflux, α4β2",human α4β2 nAChRs [2]; [7],no antagonist activity
same,Ki,rat α4β2 nAChRs,0.41 ± 0.16 nM
same,Selectivity (Ki ratio: rat α3β4/rat α4β2),rat α4β2 nAChRs; ratio of Ki values,"24,000"
same,Ki,"rat α4β2 nAChRs; read-out: Equilibrium binding affinity (Ki, nM) α4β2, example tables, species not given",0.41 nM
same,blocking of α3β4 nAChRs,rat α3β4 nAChRs [3]; 10 min preincubation,ineffective
same,IC50,"rat α3β4 nAChRs [3]; Acute Antagonist Potency (IC50(A), nM) α3β4, applied simultaneously with nicotine",> 10000 nM
same,IC50,"rat α3β4 nAChRs [3]; Desensitization Potency (IC50(D,10 min), nM) α3β4, 10 min pretreatment before nicotine",> 10000 nM
same,IC50,"rat α3β4 nAChRs [3]; IC50 α3β4 nAChRs, 0 min Pretreatment, added simultaneously with 100 μM nicotine, mean ± SEM of 3 to 7 experiments",> 10000 nM
same,IC50,"rat α3β4 nAChRs [3]; IC50 α3β4 nAChRs, 10 min Pretreatment, 10 min preincubation, then 100 μM nicotine, mean ± SEM of 3 to 7 experiments",> 10000 nM
same,"acute antagonist activity, blockade of nicotine-stimulated 86Rb+ efflux, α3β4",rat α3β4 nAChRs [3]; [7],no antagonist activity
same,Ki,human α4β2 nAChRs [4],0.64 ± 0.32 nM
same,EC50 for activation of channel function (86Rb+ efflux),"human α4β2 nAChRs [5]; human α4β2 receptors, mean ± SEM, FIG. 2A",could not be calculated
same,Agonist Activity α4β2,human α4β2 nAChRs [5],Not detected
same,Agonist Activity α4β2,human α4β2 nAChRs [5]; listed as sazetidine-A,no agonist activity
same,EC50 for activation of channel function (86Rb+ efflux),"rat α3β4 nAChRs [6]; rat α3β4 receptors, mean ± SEM, FIG. 2B",could not be calculated
same,Agonist Activity α3β4,rat α3β4 nAChRs [6],Not detected
same,Agonist Activity α3β4,rat α3β4 nAChRs [6]; listed as sazetidine-A,no agonist activity
